Data as given in patent US8445523B2, “Dioxo-imidazolidine derivatives, which inhibit the enzyme SOAT-1, and pharmaceutical and cosmetic compositions containing them” (Galderma Research & Development, priority 2009, dated 2013).

The compounds below were run against T1, enzyme ACAT-1 (Homo sapiens, UniProt P35610) (assay: HepG2 NBD-cholesterol fluorescence test of inhibitory activity towards ACAT-1 (SOAT-1)). Conditions: HepG2 cells, NBD-cholesterol 1 μg/ml, incubation 6 hours at 37° C., fluorescence read (490/540 nm).
T1 construct: endogenous in cells; host or cells: HepG2
T1 sequence (P35610 1-550): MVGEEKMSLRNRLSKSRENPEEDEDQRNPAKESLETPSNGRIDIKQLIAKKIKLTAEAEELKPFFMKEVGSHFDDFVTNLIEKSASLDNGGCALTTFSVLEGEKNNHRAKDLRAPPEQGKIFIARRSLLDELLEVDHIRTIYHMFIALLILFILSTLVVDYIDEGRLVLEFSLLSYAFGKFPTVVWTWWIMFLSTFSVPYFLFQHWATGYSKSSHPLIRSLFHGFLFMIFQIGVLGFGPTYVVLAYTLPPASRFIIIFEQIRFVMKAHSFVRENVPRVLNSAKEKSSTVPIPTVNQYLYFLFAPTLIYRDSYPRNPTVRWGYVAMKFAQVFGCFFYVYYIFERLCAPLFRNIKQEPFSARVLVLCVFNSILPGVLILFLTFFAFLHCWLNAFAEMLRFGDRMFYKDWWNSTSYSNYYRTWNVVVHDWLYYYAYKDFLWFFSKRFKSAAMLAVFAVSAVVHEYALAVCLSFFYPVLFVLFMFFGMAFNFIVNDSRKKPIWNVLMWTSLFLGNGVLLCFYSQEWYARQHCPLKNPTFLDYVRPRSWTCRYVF
Type: cell-based
Method: The compounds (I) according to the invention, and also the pharmaceutically acceptable salts, solvates and/or hydrates thereof, have inhibitory properties on the enzyme SOAT-1. This inhibitory activity on the enzyme SOAT-1 is measured according to a HepG2 primary enzymatic test, as described in Example 11.
The compounds of formula (I) according to the invention were subjected to a test for evaluating their inhibitory activity towards the enzyme ACAT-1, inspired by the following publication: “Identification of ACAT1- and ACAT2-specific inhibitors using a novel, cell based fluorescence assay: individual ACAT uniqueness”, J. Lipid. Res. (2004) vol. 45, pages 378-386.
The principle of this test is based on the use of NBD-cholesterol, a cholesterol analogue whose fluorescence depends on its environment. When this molecule is in a polar environment, it is weakly fluorescent, whereas in a non-polar environment, it is strongly fluorescent. Free NBD-cholesterol becomes inserted in cell membranes and is weakly fluorescent in this polar environment. When NBD-cholesterol is esterified with ACAT, the NBD-cholesterol ester enters non-polar lipid droplets and is then strongly fluorescent.
The method below is applied: HepG2 cells are incubated in the presence of NBD-cholesterol (1 μg/ml) and of the test compound of formula (I) in black transparent-bottomed 96-well plates, at a rate of 30 000 cells per well. After incubation for 6 hours at 37° C. under 5% CO2, the medium is removed by turning upside-down and the cells are washed with twice 100 μl of PBS. After addition of 50 μl of lysis buffer (10 mM NaPO4, 1% Igepal), the plates are shaken for 5 minutes and the fluorescence is read (excitation at 490 nm, emission at 540 nm) on a Fusion machine (Perkin-Elmer).

SMILES | IC50
CC(C)c1cccc(C(C)C)c1NC(=O)CN1C(=O)N(c2cccnc2)C2(CCCCC2)C1=O [compound (1)] | 9 nM
Cc1cnc(N2C(=O)N(CC(=O)Nc3c(C(C)C)cccc3C(C)C)C(=O)C23CCCCC3)cn1 [compound (3)] | 5.5 nM
Cc1ccc(N2C(=O)N(CC(=O)Nc3c(C(C)C)cccc3C(C)C)C(=O)C23CCOCC3)cn1 [compound (5)] | 79 nM

The next compounds have a lower IC50 than those just listed; values first:

IC50 | SMILES
3 nM | COc1ccc(N2C(=O)N(CC(=O)Nc3c(C(C)C)cccc3C(C)C)C(=O)C23CCCCC3)cn1 [compound (2)]
0.6 nM | Cc1ccc(N2C(=O)N(CC(=O)Nc3c(C(C)C)cccc3C(C)C)C(=O)C23CCCCC3)cn1 [compound (4), N-(2,6-Diisopropylphenyl)-2-[1-(6-methyl-pyridin-3-yl)-2,4-dioxo-1,3-diazaspiro[4.5]dec-3-yl]-acetamide]
